Consider 23 compounds from ChEMBL document CHEMBL5046305, “A Chemical Strategy toward Novel Brain-Penetrant EZH2 Inhibitors” (ACS Med Chem Lett, 2022).

pIC50: −log10 of the molar value.

One series has as its system KARPAS-422. In words: Antiproliferative activity against human KARPAS-422 cells assessed as cell growth inhibition incubated for 72 hrs followed by compound dilution in growth medium and measured after 96 hrs by Alamar blue assay. It is filed as functional, cell-based. For orientation: Alamar Blue is a resazurin reagent that responds to reducing activity.
Series [1] in a line: Metabolic stability in mouse liver microsomes at 1 uM in presence of NADPH generating system by LC/MS/MS analysis. It is filed as ADME, Microsome. The settings on record: read-out: Stability. Background: Liver microsomes are vesicles of endoplasmic reticulum, rich in cytochrome P450 enzymes.
Series [2] in a line: Apparent permeability across apical to basolateral side in MDCK-MDR1 cells at 1 to 10 uM measured after 1 hrs by LC/MS/MS analysis. It is filed as ADME, cell-based, Canis lupus familiaris. As to conditions: dog, dose 1-10 µM.
The nature of series [3]: Ratio of unbound drug concentration in brain to blood in Sprague-Dawley rat at 1 mg/kg, iv measured after 15 mins by LC/MS/MS analysis. It is filed as ADME, organism-based. As to conditions: read-out: K(p,uu,brain).
Series [4] is described as follows: Metabolic stability in human liver microsomes at 1 uM in presence of NADPH generating system by LC/MS/MS analysis. It is filed as ADME, Microsome. The settings on record: read-out: Stability.
For series [5], the target named is T1, Histone-lysine N-methyltransferase EZH2 (Homo sapiens, UniProt Q15910). In words: Inhibition of EZH2 (unknown origin) using 3H-SAM as substrate incubated for 1 hour by filter binding method.
In another series the test system is MDR1. In words: Efflux ratio of apparent permeability across basolateral to apical side over apical to basolateral side in MDCK-MDR1 cells at 1 to 10 uM measured after 1 hrs by LC/MS/MS analysis. It is filed as ADME, cell-based, Canis lupus familiaris. The settings on record: dog, dose 1-10 µM.
Series [6] concerns the target T1, Histone-lysine N-methyltransferase EZH2. In words: Inhibition of EZH2 in HEK293T cells assessed as H3K27me3 levels incubated for 48 hrs by flow cytometry. It is filed as cell-based.

T1 sequence (Q15910 whole entry): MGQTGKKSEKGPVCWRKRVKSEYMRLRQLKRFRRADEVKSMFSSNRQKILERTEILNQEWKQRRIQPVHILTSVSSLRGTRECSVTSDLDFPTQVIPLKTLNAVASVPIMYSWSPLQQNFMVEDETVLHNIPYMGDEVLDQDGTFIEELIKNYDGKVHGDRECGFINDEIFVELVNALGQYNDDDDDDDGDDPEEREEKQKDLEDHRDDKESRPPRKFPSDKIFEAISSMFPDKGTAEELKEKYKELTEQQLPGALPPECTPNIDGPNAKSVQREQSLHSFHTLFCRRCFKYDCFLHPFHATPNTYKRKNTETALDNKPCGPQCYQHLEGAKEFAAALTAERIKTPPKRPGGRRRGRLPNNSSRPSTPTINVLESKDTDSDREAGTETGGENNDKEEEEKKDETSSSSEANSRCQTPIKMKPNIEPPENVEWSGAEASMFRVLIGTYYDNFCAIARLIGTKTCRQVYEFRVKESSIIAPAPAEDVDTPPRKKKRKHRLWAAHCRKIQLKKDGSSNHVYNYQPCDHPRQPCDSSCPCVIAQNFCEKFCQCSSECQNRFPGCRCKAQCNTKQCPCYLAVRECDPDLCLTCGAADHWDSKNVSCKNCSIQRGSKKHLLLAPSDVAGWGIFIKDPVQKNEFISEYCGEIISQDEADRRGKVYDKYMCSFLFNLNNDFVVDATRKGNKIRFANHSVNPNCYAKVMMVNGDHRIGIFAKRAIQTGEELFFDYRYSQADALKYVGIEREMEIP

Broadly, the pIC50 is the IC50 on a negative log10 scale, so that one unit is a factor of ten. One may read the Papp A→B as how fast a substance crosses the layer from the apical side. As for `Cc1cc(C)n(C)c(=O)c1CN1CCc2c(Cl)cc(-c3c(C)noc3C)c(Cl)c2C1=O`, the pIC50 in the series with KARPAS-422 was 5.33. Besides, the microsomal CLint at 1 µM is greater than 768 µL/min/mg in series [1] and 449 µL/min/mg in series [4]. Besides, in series [2], the Papp A→B at 1 h, up to 10 µM amounted to 10.5 ×10⁻⁶ cm/s. The Kp uu at 0.25 h in series [3] was found to be 0.29.

A word on the efflux ratio: it is a quotient of directional permeabilities that is used to spot active efflux. On to `Cc1cc(C)c(CN2CCc3c(Cl)cc(-c4c(C)noc4C)c(Cl)c3C2=O)c(=O)[nH]1`, for which the negative logarithm of the IC50 (pIC50) in series [5] was 9.00; in the series with KARPAS-422, 6.91; in series [6], 7.80. Further, in the series on MDR1, the efflux ratio at 1 h, up to 10 µM amounted to 4.8. In addition, the microsomal CLint at 1 µM in series [1] was 253 µL/min/mg; in series [4] it was 210 µL/min/mg. In addition, the Papp A→B at 1 h, up to 10 µM in series [2] stood at 3.7 ×10⁻⁶ cm/s. The Kp uu at 0.25 h in series [3] was less than 0.003.

For `CCc1cc(C)n(C)c(=O)c1CN1CCc2c(Cl)cc(-c3c(C)noc3C)c(Cl)c2C1=O`, in series [5], the pIC50 was 7.09. Also, the efflux ratio at 1 h, up to 10 µM with MDR1 is 0.72. The microsomal CLint at 1 µM in series [1] and in series [4] was greater than 768 µL/min/mg each time. Besides, in series [2], the Papp A→B at 1 h, up to 10 µM stood at 11 ×10⁻⁶ cm/s.

For `COc1cc(C)[nH]c(=O)c1CN1CCN(C)c2ccc(-c3c(C)noc3C)c(Cl)c2C1=O`, the pIC50 in series [5] was 8.54. Further, the Papp A→B at 1 h, up to 10 µM in series [2] is less than 0.1 ×10⁻⁶ cm/s. Besides, in series [4], the microsomal CLint at 1 µM was 9 µL/min/mg.

`CSc1cc(C)n(C)c(=O)c1CN1CCN(C)c2c(Cl)cc(-c3c(C)noc3C)c(Cl)c2C1=O`: the pIC50 was 7.94 in series [5] and 4.98 in the series on KARPAS-422. The efflux ratio at 1 h, up to 10 µM in the series with MDR1 was 110. The Papp A→B at 1 h, up to 10 µM in series [2] was determined as 0.2 ×10⁻⁶ cm/s.

Turning to `CSc1cc(C)n(C)c(=O)c1CN1CCNc2c(Cl)cc(-c3c(C)noc3C)c(Cl)c2C1=O`, the pIC50 in series [5] is 8.68; with KARPAS-422, 5.88. In addition, the efflux ratio at 1 h, up to 10 µM with MDR1 is 220. Further, the Papp A→B at 1 h, up to 10 µM in series [2] amounted to 0.2 ×10⁻⁶ cm/s.

Regarding `COc1cc(C)[nH]c(=O)c1CN1CCN(C)c2c(Cl)cc(-c3c(C)noc3C)c(Cl)c2C1=O`, the pIC50 in series [5] is 9.06; with KARPAS-422 it was 6.61; in series [6] it was 6.68. For the same compound, the efflux ratio at 1 h, up to 10 µM in the series on MDR1 is greater than 49. Further, the microsomal CLint at 1 µM came to 112 µL/min/mg in series [1] and 80 µL/min/mg in series [4]. In addition, in series [2], the Papp A→B at 1 h, up to 10 µM is less than 0.1 ×10⁻⁶ cm/s.

With `CSc1cc(C)[nH]c(=O)c1CN1CCN(C)c2c(Cl)cc(-c3c(C)noc3C)c(Cl)c2C1=O`, the pIC50 is 9.05 in series [5] and 6.90 with KARPAS-422. In addition, in the series on MDR1, the efflux ratio at 1 h, up to 10 µM is greater than 99. In addition, the Papp A→B at 1 h, up to 10 µM in series [2] is less than 0.1 ×10⁻⁶ cm/s.

The compound `COc1cc(C)[nH]c(=O)c1CN1CCN(C)c2c(Cl)cc(OC(C)C)c(Cl)c2C1=O` showed a pIC50 in series [5] of 7.48. Moreover, the values for the microsomal CLint at 1 µM in series [1] and in series [4] were greater than 768 µL/min/mg and 29 µL/min/mg, respectively.

In the case of `COc1cc(C)[nH]c(=O)c1CN1CCN(C)c2c(Cl)cc(-c3ccc(CN4CCOCC4)cc3)c(Cl)c2C1=O`, in series [5], the pIC50 was 6.66. The microsomal CLint at 1 µM in series [1] and in series [4] was 41 µL/min/mg throughout.

The compound `COc1cc(C)[nH]c(=O)c1CN1CCN(C)c2c(Cl)cc(-c3ccc(Cl)cc3F)c(Cl)c2C1=O` showed a pIC50 in series [5] of 7.14. Moreover, the microsomal CLint at 1 µM stood at 297 µL/min/mg in series [1] and 97 µL/min/mg in series [4].

In turn, `COc1cc(C)[nH]c(=O)c1CN1CCN(C)c2c(Cl)cc(C(O)C3CCOCC3)c(Cl)c2C1=O` (stereo not given) gave a pIC50 in series [5] of 8.03. The results for the microsomal CLint at 1 µM in series [1] and in series [4] were 91 µL/min/mg and 34 µL/min/mg, respectively.

Turning to `CCN1CCN(Cc2c(OC)cc(C)[nH]c2=O)C(=O)c2c(Cl)c(-c3c(C)noc3C)cc(Cl)c21`, in series [5], the pIC50 is 7.48.

`Cc1noc(C)c1-c1cc(Cl)c2c(c1Cl)C(=O)N(Cc1c(C3CC3)cc(C)n(C)c1=O)CC2`: the negative logarithm of the IC50 (pIC50) in series [5] is 6.52. Moreover, the efflux ratio at 1 h, up to 10 µM in the series on MDR1 was 1.5. In addition, the microsomal CLint at 1 µM was greater than 768 µL/min/mg in series [1] and 490 µL/min/mg in series [4]. In series [2], the Papp A→B at 1 h, up to 10 µM was 5.2 ×10⁻⁶ cm/s.

In the case of `COc1cc(C)[nH]c(=O)c1CN1CCNc2c(Cl)cc(-c3c(C)noc3C)c(Cl)c2C1=O`, the figures for the negative logarithm of the IC50 (pIC50) (in series [5]; in the series with KARPAS-422; in series [6]) were 9.46, 7.19 and 7.77, respectively. The efflux ratio at 1 h, up to 10 µM in the series on MDR1 is greater than 51. Also, the microsomal CLint at 1 µM in series [1] turned out to be 123 µL/min/mg; in series [4], 79 µL/min/mg. Besides, the apparent permeability from apical to basolateral (Papp A→B) at 1 h, up to 10 µM in series [2] is less than 0.1 ×10⁻⁶ cm/s.

`COc1cc(C)[nH]c(=O)c1CN1CCN(C)c2c(Cl)cc(-c3ccc(N4CCOCC4)cc3)c(Cl)c2C1=O` gave a pIC50 in series [5] of 7.19. Also, the microsomal CLint at 1 µM was determined as 8 µL/min/mg in series [1] and 7 µL/min/mg in series [4].

In series [5], `CCN(c1cc(Cl)c2c(c1Cl)C(=O)N(Cc1c(OC)cc(C)[nH]c1=O)CCN2C)C1CCOCC1` showed a pIC50 of 8.72. The microsomal CLint at 1 µM in series [1] was greater than 768 µL/min/mg; in series [4] it was 181 µL/min/mg.

`Cc1noc(C)c1-c1cc(Cl)c2c(c1Cl)C(=O)N(Cc1c(C(F)(F)F)cc(C)n(C)c1=O)CC2` gave a pIC50 in series [5] of less than 6.00. Also, the efflux ratio at 1 h, up to 10 µM with MDR1 was 2.4. For the same compound, the results for the microsomal CLint at 1 µM in series [1] and in series [4] were 592 µL/min/mg and 287 µL/min/mg, respectively. Further, in series [2], the Papp A→B at 1 h, up to 10 µM was 4.9 ×10⁻⁶ cm/s.

As to `COc1cc(C)[nH]c(=O)c1CN1CCN(C)c2c(Cl)cc(C(C)C3CCOCC3)c(Cl)c2C1=O` (stereo not given), the negative-log IC50 (pIC50) in series [5] is 8.70. Further, the figures for the microsomal CLint at 1 µM in series [1] and in series [4] were 562 µL/min/mg and 206 µL/min/mg, respectively.

With `COc1cc(C)n(C)c(=O)c1CN1CCc2c(Cl)cc(-c3c(C)noc3C)c(Cl)c2C1=O`, the pIC50 is 7.94 in series [5] and 5.53 in the series with KARPAS-422. The efflux ratio at 1 h, up to 10 µM in the series on MDR1 stood at 23. Moreover, the microsomal CLint at 1 µM in series [1] came out at 656 µL/min/mg; in series [4] it was 117 µL/min/mg. Moreover, in series [2], the Papp A→B at 1 h, up to 10 µM worked out at 1 ×10⁻⁶ cm/s.

As to `CSc1cc(C)n(C)c(=O)c1CN1CCc2c(Cl)cc(-c3c(C)noc3C)c(Cl)c2C1=O`, the pIC50 in series [5] was 8.89; with KARPAS-422 it was 6.20. Further, in the series on MDR1, the efflux ratio at 1 h, up to 10 µM was found to be 110. The results for the microsomal CLint at 1 µM in series [1] and in series [4] were 796 µL/min/mg and 235 µL/min/mg, respectively. Further, the Papp A→B at 1 h, up to 10 µM in series [2] came out at 0.3 ×10⁻⁶ cm/s.

`CCc1cc(C)[nH]c(=O)c1CN1CCN(C)c2c(Cl)cc(-c3c(C)noc3C)c(Cl)c2C1=O` had a pIC50 in series [5] of 8.74. For the same compound, in the series on MDR1, the efflux ratio at 1 h, up to 10 µM is greater than 170. In series [2], the Papp A→B at 1 h, up to 10 µM was less than 0.1 ×10⁻⁶ cm/s.

On to `COc1cc(C)n(C)c(=O)c1CN1CCN(C)c2c(Cl)cc(-c3c(C)noc3C)c(Cl)c2C1=O`, for which, in series [5], the pIC50 was 6.27.
